From paper PMC10661964 (Current Drug Metabolism, 2023)
“And” between values parts separate entries of the source, which are not always exact repeats. Equal entries are not always repeated. Where two headings read alike, the source gives them in different places.

What was measured:
[1] = Quantification of nifurtimox and metabolites in human plasma (LC-HRMS), plasma PK; assay type: in vivo; details: fed; for AUC(tlast-∞) (extrapolated proportion): pooled plasma of 6 patients, single oral 120 mg nifurtimox; for AUC, % of total quantified exposure: sum of AUC of nifurtimox and M-1 to M-6 = 100%, single oral 120 mg
Experimental: Plasma samples from timepoints 0, 0.25, 0.5, 0.75, 1, 1.5, 2, 2.5, 3, 4, 6, 8, 12, 15, and 24 h from 6 patients were analyzed. Blood samples were collected into lithium heparinized tubes. Blood cells and plasma were then separated by centrifugation, and the plasma was stored frozen until needed. For the analysis, plasma samples were thawed at room temperature and homogenized by vortex mixing. Equal volumes of plasma from the six patients for each timepoint were combined to a pooled volume of 200 µL. To precipitate protein, a 3-fold volume of acetonitrile/0.5% formic acid (v/v in water) was added to each pooled sample which was thoroughly mixed and then centrifuged at 20,000 g. […] For all analytes, the analytical precision ranged from 0.1% to 8.8%, and the accuracy was 95% to 108%.

[2] = Quantification of nifurtimox and metabolites in rat plasma after a single high dose (200 mg/kg); assay type: in vivo, Wistar rats; details: for AUC(0-t) / AUC / Cmax / Tmax / half-life: Wistar, rat, plasma, po, 200 mg/kg; for ratio of rat:human AUC(0-24): rat 200 mg/kg oral vs human 120 mg oral
Experimental: Blood cells and plasma were then separated by centrifugation, and the plasma was stored at ≤-15°C until required. For analysis, plasma samples were thawed at room temperature and homogenized by vortex mixing. Plasma samples were pooled separately for male and female rats by combining 25 µL from each of the 4 animals for each timepoint. […] To each pooled plasma (100 µL), calibration, or control sample, 300 µL of an internal standard solution containing [^2H8]-nifurtimox (500 ng/mL) and [^2H3]-M-6 (2500 ng/mL) in acetonitrile + 0.5% formic acid in water (v/v) was added and mixed thoroughly. All samples were then centrifuged (20,000 g, 5 min) to precipitate the protein. The supernatant was analyzed using a 1290 Infinity LC system equipped with a diode array detector and an Orbitrap Q-Exactive Plus HRMS (Thermo Fisher Scientific, Bremen, Germany) with a heated electrospray ionization source. […] The mobile phase gradient was: 0 min, 0% B; 2.5 min, 0% B; 3 min, 20% B; 8 min, 45% B; 9 min, 90% B; 10.1 min, 90% B; 12 min, 0% B; 13 min, 0% B. The following HRMS parameters were used: mass range, 120-200 Da (0-2.5 min) and 230-600 Da (2.5-13 min) in full scan mode; resolution, 280,000; ion source voltage, 3500 V; capillary temperature, 300°C; source temperature, 60°C.
The calibration was based on the relative peak area as a function of concentration obtained by linear regression. […] Thus, all concentrations in μg/mL were back-calculated to nmol/mL. The PK parameters for each analyte were calculated using ToxKin software, as described above.

[3] = tested on: human CYP enzymes (all isoforms tested); assay: CYP inhibition, all isoforms tested (summary); assay type: in vitro ADME; details: reversible and irreversible
Excerpt: (§1) The inhibition of cytochrome P450 (CYP) isoforms and a range of cellular transporters (except multidrug and toxin extrusion [MATE] proteins), as well as the induction of CYP isoforms were investigated using previously described methods.

[4] = tested on: human CYP enzymes; assay: CYP induction, all isoforms tested (summary); assay type: in vitro ADME
Excerpt: as §1

[5] = biological target: T1, MATE2K (Homo sapiens, UniProt Q86VL8); assay: MATE2K transport assay in overexpressing HEK293 cells; assay type: in vitro ADME; details: probe substrate metformin 90 µM
T1 construct: expressed in transfected cells; host or cells: HEK293, stably transfected
T1 sequence (Q86VL8 1-566 isoform Q86VL8-3): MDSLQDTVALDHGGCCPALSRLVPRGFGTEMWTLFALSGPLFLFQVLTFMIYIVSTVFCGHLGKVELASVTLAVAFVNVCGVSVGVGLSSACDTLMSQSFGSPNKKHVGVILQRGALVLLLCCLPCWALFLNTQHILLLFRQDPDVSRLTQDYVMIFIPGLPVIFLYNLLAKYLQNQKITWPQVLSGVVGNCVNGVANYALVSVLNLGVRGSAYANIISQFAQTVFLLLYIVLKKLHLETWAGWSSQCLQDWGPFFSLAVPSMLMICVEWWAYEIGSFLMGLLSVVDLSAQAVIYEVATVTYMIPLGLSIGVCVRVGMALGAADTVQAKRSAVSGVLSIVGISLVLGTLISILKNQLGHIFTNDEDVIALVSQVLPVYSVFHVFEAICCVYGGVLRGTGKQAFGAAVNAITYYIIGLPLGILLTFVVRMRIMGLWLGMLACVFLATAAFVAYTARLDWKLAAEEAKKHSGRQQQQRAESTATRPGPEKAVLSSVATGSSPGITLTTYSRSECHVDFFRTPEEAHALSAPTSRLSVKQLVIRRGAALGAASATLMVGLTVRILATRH
Experimental: as §1
Supplementary Material Current Drug Metabolism, 2023, Vol. 24, No. 8 iii […]
-, not determined; BCRP, breast cancer resistance protein; P-gp, P-glycoprotein; MATE, multidrug and toxin extrusion. aThe highest test concentration of 20 µM was not valid in this assay for technical reasons.
OAT, organic anion transporter; OATP, organic anion transporting polypeptide; OCT, organic cation transporters.
After thawing from frozen storage, aliquots of approximately 3 x 10^6 cells of human embryonic kidney (HEK293) cell line stable overex-pressing MATE1 or MATE2K were transferred to cell culture dishes containing 10 mL of DMEM-medium (supplemented with 10% FBS, 1% penicillin [10.000 U/mL]/streptomycin [10 mg/mL] and hygromycin B [150 µg/mL]) at 37°C. Transporter-transfected and vector-transfected HEK cells were grown on cell culture dishes at 37°C in a humidified 5% CO 2 atmosphere. All cell lines were confirmed free from mycoplasma by routine testing with conventional PCR. Cell cultures were split when they had grown to confluency. For passaging, cells were washed with PBS, exposed to trypsin-EDTA for 5 min at room temperature, collected by centrifugation, resuspended in culture medium and […]
MATE1 and MATE2K Transport Assays
Transporter-transfected and vector-transfected cells were prepared for use in uptake assays by harvesting and plating into 24-well-plates pre-coated with poly-D-lysine hydrobromide at a density of 2 x 10^5 cells/well and then cultured for 3 days in DMEM growth medium (high glucose, 10% FBS, 1% penicillin/streptomycin). For uptake assays, the growth medium was aspirated and each plate well was rinsed twice with HBSS supplemented with 20 mM HEPES, pH 7.4. The intracellular environment was acidified by preincubation in 30 mM NH4Cl in buffer pH 7.4 at 37°C for 30 min. […]

[6] = female, read-out: AUC(0–24), female animals
[7] = female, read-out: AUC, female animals
[8] = female, read-out: Cmax, female animals
[9] = female, read-out: tmax, female animals
[10] = female, read-out: t½, female animals (converted)
[11] = male, read-out: AUC(0–24), male animals
[12] = male, read-out: AUC, male animals
[13] = male, read-out: Cmax, male animals
[14] = male, read-out: tmax, male animals
[15] = male, read-out: t½, male animals (converted)

| SMILES | AUC(tlast-∞) (extrapolated proportion) [1] [%] | AUC, % of total quantified exposure [1] | AUC(0-t) [2, 6] [µM·h] | AUC [2, 7] [µM·h] | Cmax [2, 8] [µM] | Tmax [2, 9] [h] | half-life [2, 10] [h] | AUC(0-t) [2, 11] [µM·h] | AUC [2, 12] [µM·h] | Cmax [2, 13] [µM] | Tmax [2, 14] [h] | half-life [2, 15] [h] | ratio of rat:human AUC(0-24) [2] | IC50 [3] [µM] | concentration up to which induction of CYP mRNA or activity was absent [4] | IC50 [5] [µM] |
| --- | --- | --- | --- | --- | --- | --- | --- | --- | --- | --- | --- | --- | --- | --- | --- | --- |
| CC1CS(=O)(=O)CCN1n1cc(SCC(N)C(=O)O)ccc1=O (centres unmarked) [M-4] | 48.4 | 8.9% and 8.9^a % | 4.84 | 7.41 | 0.568 | 3 | 18.6 | 4.78 | 9.77 | 0.338 | 2 | 18.3 | 2.0-2.1 fold | > 20 | ≤ 80 µg/mL | > 5 |
| CC1CS(=O)(=O)CCN1/N=C/c1ccc([N+](=O)[O-])o1 (centres unmarked) [Nifurtimox, (E)-N-(3-methyl-1,1-dioxo-1,4-thiazinan-4-yl)-1-(5-nitrofuran-2-yl) methanimine, reference compound] | 0.6 | 16.9% | 117 | 121 | 18.3 | 1 | 5 | 138 | 184 | 10.1 | 2 | 5 |  | > 50 | up to 30 mg/L | > 20 |
| CC1CS(=O)(=O)CCN1N (centres unmarked) [M-6] | 21.8 | 69.4% | 65.8 | 96.1 | 3.92 | 3 | 13.5 | 78.4 | 148 | 3.65 | 24 | 10.6 | 2.4-2.8 fold | > 100 | ≤ 90 µg/mL | > 30 |
